In PMC3652757, “Enhancement of fermentable sugar yields by α-xylosidase supplementation of commercial cellulases” (Biotechnology for Biofuels, 2013):

Target: T1, AxlA (Aspergillus niger, UniProt A2QTU5)
T1 sequence (A2QTU5 19-736): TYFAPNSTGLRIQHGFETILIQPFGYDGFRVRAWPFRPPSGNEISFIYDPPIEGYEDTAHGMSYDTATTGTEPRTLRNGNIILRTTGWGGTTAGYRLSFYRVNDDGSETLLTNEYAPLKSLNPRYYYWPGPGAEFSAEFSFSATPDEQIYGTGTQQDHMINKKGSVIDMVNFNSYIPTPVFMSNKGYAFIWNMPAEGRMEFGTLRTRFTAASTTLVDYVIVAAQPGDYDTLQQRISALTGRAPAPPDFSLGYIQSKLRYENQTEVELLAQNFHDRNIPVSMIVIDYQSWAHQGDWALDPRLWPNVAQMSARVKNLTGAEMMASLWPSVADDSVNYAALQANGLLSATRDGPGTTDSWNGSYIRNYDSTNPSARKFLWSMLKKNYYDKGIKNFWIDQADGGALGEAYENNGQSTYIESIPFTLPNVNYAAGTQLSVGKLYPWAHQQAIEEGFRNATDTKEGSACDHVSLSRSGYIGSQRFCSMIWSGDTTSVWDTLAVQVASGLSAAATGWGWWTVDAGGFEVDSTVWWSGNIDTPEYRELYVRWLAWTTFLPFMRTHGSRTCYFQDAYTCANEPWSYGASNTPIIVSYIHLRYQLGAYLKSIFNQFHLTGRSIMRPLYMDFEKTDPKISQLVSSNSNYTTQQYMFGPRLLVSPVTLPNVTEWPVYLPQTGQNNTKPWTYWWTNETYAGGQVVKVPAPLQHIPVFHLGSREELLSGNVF
Assay: pNPαX hydrolysis competition, nonlinear curve fitting
Assay type: biochemical
Conditions: substrate p-nitrophenyl-α-xyloside 0-20 mM; reaction product

SMILES: OC1OC[C@@H](O)[C@H](O)[C@H]1O (stereo partly shown) [Xyl]
- Ki: 13.7 mM
